Experimental data from patent publication US11419806B2, “Prebiotic oral care methods using a saccharide” (Colgate-Palmolive Company, priority 2013, dated 2022).

How the values were obtained:
Type in all cases: cell-based
[1] = system: Actinomyces naeslundii; experiment: Twenty-four hour optical density growth in BHI; details: A naeslundii
Protocol: (§1) The extent of growth of the tested bacteria in response to selected saccharides (myo-inositol, D-lactitol, D-turanose and N-acetyl-D-mannosamine) was investigated by setting up growth curves in a nutritionally rich medium (brain heart infusion broth (BHI), Oxoid), over 24 hours. Late exponential growth phase liquid cultures were prepared by transferring the respective bacterium from blood agar plates to BHI and overnight incubation at 37° C. in an anaerobic atmosphere for A. viscosus, V. parvula, F. nucleatum, P. gingivalis, P. intermedia, T. forsythia, A. naeslundii, and C. sputigena, and in a 5% CO2 environment for S. salivarius, S. sanguinis, S. mitis, A. actinomycetemcomitans, S. mutans, S. sobrinus and S. gordonii. Overnight cultures were transferred to BHI and adjusted to a concentration of 1×10^7 CFU/ml (colony forming units per ml) by measuring the optical density at 600 nm (OD600) (BioRad SmartSpec 3000). For each strain, 200 μl of the bacterial suspension was added to a 96-well plate containing 20 μl of the respective saccharides. Final concentrations of the saccharides were set to 5, 10, 20 and 25 μmol/ml. […] Plates were incubated as previously described.
(§2) For each combination of bacterium/saccharide, and for each of their respective controls (i.e. the particular bacterium in the nutritionally rich medium with no saccharide), the optical density was measured at 630 nm (OD630) at 0 h and 24 h (Thermo Scientific Multiskan Ascent). Additionally, the OD630 for combinations of bacterium/saccharides grown in a 5% CO2 environment were also measured every hour between 0 h and 9 h.
(§3) The experiment was carried out on three different days (thus providing 3 biological replicas) and on each day the experiment was carried out in quadruple (thus providing 4 technical replicas) for each combination of bacterium with saccharide and for each control. For each day and for each combination, the average (mean) of the values obtained (as detailed above) for the four technical replicas was calculated to provide a single value for each combination on each day. The values shown in Tables 5a,b to 6a,b, below, are the average (mean) of the three single values obtained for each combination of bacterium with saccharide.

[2] = system: Actinomyces viscosus; experiment: Twenty-four hour optical density growth in BHI; details: A viscosus
Protocol: as §1, §2, §3

[3] = system: Aggregatibacter actinomycetemcomitans; experiment: Twenty-four hour optical density growth in BHI; details: A actinomycetemcomitans
Protocol: as §1, §2, §3

[4] = system: Capnocytophaga sputigena; experiment: Twenty-four hour optical density growth in BHI; details: C sputigena
Protocol: as §1, §2, §3

[5] = system: Fusobacterium nucleatum; experiment: Twenty-four hour optical density growth in BHI; details: F nucleatum
Protocol: as §1, §2, §3

[6] = system: Porphyromonas gingivalis; experiment: Twenty-four hour optical density growth in BHI; details: P gingivalis
Protocol: as §1, §2, §3

[7] = system: Prevotella intermedia; experiment: Twenty-four hour optical density growth in BHI; details: P intermedia
Protocol: as §1, §2, §3

[8] = system: S. sanguinis; experiment: Twenty-four hour optical density growth in BHI
Protocol: as §1, §2, §3

[9] = system: Streptococcus gordonii; experiment: Twenty-four hour optical density growth in BHI; details: S gordonii
Protocol: as §1, §2, §3

[10] = system: Streptococcus mitis; experiment: Twenty-four hour optical density growth in BHI; details: S mitis
Protocol: as §1, §2, §3

[11] = system: Streptococcus mutans; experiment: Twenty-four hour optical density growth in BHI; details: S mutans
Protocol: as §1, §2, §3

[12] = system: Streptococcus salivarius; experiment: Twenty-four hour optical density growth in BHI; details: S salivarius
Protocol: as §1, §2, §3

[13] = system: Streptococcus sobrinus; experiment: Twenty-four hour optical density growth in BHI; details: S sobrinus
Protocol: as §1, §2, §3

[14] = system: Tannerella forsythia; experiment: Twenty-four hour optical density growth in BHI; details: T forsythia
Protocol: as §1, §2, §3

[15] = system: Veillonella parvula; experiment: Twenty-four hour optical density growth in BHI; details: V parvula
Protocol: as §1, §2, §3

[16] = system: beneficial oral bacteria and pathogenic oral bacteria; experiment: Twenty-four hour optical density, overall prebiotic assessment; details: concentrations of 5, 10, 20 and 25 μmol/ml
From the text: Substrates that were able to increase the growth (or maximal growth density or extent of growth) of at least one of the above beneficial bacteria while not or only minimally increasing the growth (or maximal growth density) of the pathogenic bacteria are considered to be prebiotic compounds.
The extent of growth of the tested bacteria in response to selected saccharides (myo-inositol, D-lactitol, D-turanose and N-acetyl-D-mannosamine) was investigated by setting up growth curves in a nutritionally rich medium (brain heart infusion broth (BHI), Oxoid), over 24 hours. Late exponential growth phase liquid cultures were prepared by transferring the respective bacterium from blood agar plates to BHI and overnight incubation at 37° C. in an anaerobic atmosphere for A. viscosus, V. parvula, F. nucleatum, P. gingivalis, P. intermedia, T. forsythia, A. naeslundii, and C. sputigena, and in a 5% CO2 environment for S. salivarius, S. sanguinis, S. mitis, A. actinomycetemcomitans, S. mutans, S. sobrinus and S. gordonii. […]
as §2
as §3, with “The values shown in Tables 5a,b to 6a,b, below, are the average (mean) of the three single values obtained for each combination of bacterium with saccharide.” left out

Structure (SMILES): OC[C@H]1O[C@@](O)(CO)[C@@H](O[C@H]2O[C@H](CO)[C@@H](O)[C@H](O)[C@H]2O)[C@@H]1O [D-Turanose, α-D-glucopyranosyl-(1→3)-α-D-fructofuranose]
- extent of growth: maximal OD630 over 24 hr divided by maximal OD of control (control = 1) ([1]; 5 μmol/ml): 0.9281
- extent of growth: maximal OD630 over 24 hr divided by maximal OD of control (control = 1) ([1]; 10 μmol/ml): 0.9561
- extent of growth: maximal OD630 over 24 hr divided by maximal OD of control (control = 1) ([1]; 20 μmol/ml): 0.9443
- extent of growth: maximal OD630 over 24 hr divided by maximal OD of control (control = 1) ([1]; 25 μmol/ml): 0.9441
- extent of growth: maximal OD630 over 24 hr divided by maximal OD of control (control = 1) ([2]; 5 μmol/ml): 0.3631
- extent of growth: maximal OD630 over 24 hr divided by maximal OD of control (control = 1) ([2]; 10 μmol/ml): 0.3079
- extent of growth: maximal OD630 over 24 hr divided by maximal OD of control (control = 1) ([2]; 20 μmol/ml): 0.2558
- extent of growth: maximal OD630 over 24 hr divided by maximal OD of control (control = 1) ([2]; 25 μmol/ml): 0.2348
- extent of growth: maximal OD630 over 24 hr divided by maximal OD of control (control = 1) ([3]; 5 μmol/ml): 0.7962
- extent of growth: maximal OD630 over 24 hr divided by maximal OD of control (control = 1) ([3]; 10 μmol/ml): 0.8318
- extent of growth: maximal OD630 over 24 hr divided by maximal OD of control (control = 1) ([3]; 20 μmol/ml): 0.8672
- extent of growth: maximal OD630 over 24 hr divided by maximal OD of control (control = 1) ([3]; 25 μmol/ml): 0.8368
- extent of growth: maximal OD630 over 24 hr divided by maximal OD of control (control = 1) ([4]; 5 μmol/ml): 0.9568
- extent of growth: maximal OD630 over 24 hr divided by maximal OD of control (control = 1) ([4]; 10 μmol/ml): 0.9629
- extent of growth: maximal OD630 over 24 hr divided by maximal OD of control (control = 1) ([4]; 20 μmol/ml): 0.9558
- extent of growth: maximal OD630 over 24 hr divided by maximal OD of control (control = 1) ([4]; 25 μmol/ml): 0.9630
- extent of growth: maximal OD630 over 24 hr divided by maximal OD of control (control = 1) ([5]; 5 μmol/ml): 0.9458
- extent of growth: maximal OD630 over 24 hr divided by maximal OD of control (control = 1) ([5]; 10 μmol/ml): 0.9456
- extent of growth: maximal OD630 over 24 hr divided by maximal OD of control (control = 1) ([5]; 20 μmol/ml): 0.9285
- extent of growth: maximal OD630 over 24 hr divided by maximal OD of control (control = 1) ([5]; 25 μmol/ml): 0.9348
- extent of growth: maximal OD630 over 24 hr divided by maximal OD of control (control = 1) ([6]; 5 μmol/ml): 0.9385
- extent of growth: maximal OD630 over 24 hr divided by maximal OD of control (control = 1) ([6]; 10 μmol/ml): 0.9601
- extent of growth: maximal OD630 over 24 hr divided by maximal OD of control (control = 1) ([6]; 20 μmol/ml): 0.9183
- extent of growth: maximal OD630 over 24 hr divided by maximal OD of control (control = 1) ([6]; 25 μmol/ml): 0.9574
- extent of growth: maximal OD630 over 24 hr divided by maximal OD of control (control = 1) ([7]; 5 μmol/ml): 1.1488
- extent of growth: maximal OD630 over 24 hr divided by maximal OD of control (control = 1) ([7]; 10 μmol/ml): 1.1312
- extent of growth: maximal OD630 over 24 hr divided by maximal OD of control (control = 1) ([7]; 20 μmol/ml): 1.0407
- extent of growth: maximal OD630 over 24 hr divided by maximal OD of control (control = 1) ([7]; 25 μmol/ml): 0.9664
- extent of growth: maximal OD630 over 24 hr divided by maximal OD of control (control = 1) ([8]; 5 μmol/ml): 0.8399
- extent of growth: maximal OD630 over 24 hr divided by maximal OD of control (control = 1) ([8]; 10 μmol/ml): 0.8356
- extent of growth: maximal OD630 over 24 hr divided by maximal OD of control (control = 1) ([8]; 20 μmol/ml): 0.8262
- extent of growth: maximal OD630 over 24 hr divided by maximal OD of control (control = 1) ([8]; 25 μmol/ml): 0.7991
- extent of growth: maximal OD630 over 24 hr divided by maximal OD of control (control = 1) ([9]; 5 μmol/ml): 1.0397
- extent of growth: maximal OD630 over 24 hr divided by maximal OD of control (control = 1) ([9]; 10 μmol/ml): 1.0491
- extent of growth: maximal OD630 over 24 hr divided by maximal OD of control (control = 1) ([9]; 20 μmol/ml): 1.0248
- extent of growth: maximal OD630 over 24 hr divided by maximal OD of control (control = 1) ([9]; 25 μmol/ml): 1.0226
- extent of growth: maximal OD630 over 24 hr divided by maximal OD of control (control = 1) ([10]; 5 μmol/ml): 1.4244
- extent of growth: maximal OD630 over 24 hr divided by maximal OD of control (control = 1) ([10]; 10 μmol/ml): 1.4274
- extent of growth: maximal OD630 over 24 hr divided by maximal OD of control (control = 1) ([10]; 20 μmol/ml): 1.3589
- extent of growth: maximal OD630 over 24 hr divided by maximal OD of control (control = 1) ([10]; 25 μmol/ml): 1.2710
- extent of growth: maximal OD630 over 24 hr divided by maximal OD of control (control = 1) ([11]; 5 μmol/ml): 1.0547
- extent of growth: maximal OD630 over 24 hr divided by maximal OD of control (control = 1) ([11]; 10 μmol/ml): 0.9829
- extent of growth: maximal OD630 over 24 hr divided by maximal OD of control (control = 1) ([11]; 20 μmol/ml): 0.9244
- extent of growth: maximal OD630 over 24 hr divided by maximal OD of control (control = 1) ([11]; 25 μmol/ml): 0.9121
- extent of growth: maximal OD630 over 24 hr divided by maximal OD of control (control = 1) ([12]; 5 μmol/ml): 0.9483
- extent of growth: maximal OD630 over 24 hr divided by maximal OD of control (control = 1) ([12]; 10 μmol/ml): 0.9662
- extent of growth: maximal OD630 over 24 hr divided by maximal OD of control (control = 1) ([12]; 20 μmol/ml): 0.9401
- extent of growth: maximal OD630 over 24 hr divided by maximal OD of control (control = 1) ([12]; 25 μmol/ml): 0.9445
- extent of growth: maximal OD630 over 24 hr divided by maximal OD of control (control = 1) ([13]; 5 μmol/ml): 1.1731
- extent of growth: maximal OD630 over 24 hr divided by maximal OD of control (control = 1) ([13]; 10 μmol/ml): 1.1323
- extent of growth: maximal OD630 over 24 hr divided by maximal OD of control (control = 1) ([13]; 20 μmol/ml): 1.0466
- extent of growth: maximal OD630 over 24 hr divided by maximal OD of control (control = 1) ([13]; 25 μmol/ml): 1.0760
- extent of growth: maximal OD630 over 24 hr divided by maximal OD of control (control = 1) ([14]; 5 μmol/ml): 0.9443
- extent of growth: maximal OD630 over 24 hr divided by maximal OD of control (control = 1) ([14]; 10 μmol/ml): 0.9445
- extent of growth: maximal OD630 over 24 hr divided by maximal OD of control (control = 1) ([14]; 20 μmol/ml): 0.9299
- extent of growth: maximal OD630 over 24 hr divided by maximal OD of control (control = 1) ([14]; 25 μmol/ml): 0.9298
- extent of growth: maximal OD630 over 24 hr divided by maximal OD of control (control = 1) ([15]; 5 μmol/ml): 1.0000
- extent of growth: maximal OD630 over 24 hr divided by maximal OD of control (control = 1) ([15]; 10 μmol/ml): 0.9980
- extent of growth: maximal OD630 over 24 hr divided by maximal OD of control (control = 1) ([15]; 20 μmol/ml): 0.9904
- extent of growth: maximal OD630 over 24 hr divided by maximal OD of control (control = 1) ([15]; 25 μmol/ml): 1.0049
- prebiotic effects (extent of growth, threshold value 1.25) [16]: exhibited prebiotic effects
